Source: patent US6143769A, “Phenylacetic acid benzylamides” (Karl Thomae GmbH, priority 1983, dated 2000)
Where two headings read alike, the source gives them in different places.

How the values were obtained:
[1] = test system: glucose; test: Study 2: whole blood glucose, 2 mg AG-EE 388 ZW capsule or tablet, crossover; format: in vivo, human
Source text: Blood samples were taken at various times.

[2] = clinical; conditions: human, plasma, 1 mg
Procedure: More specifically, the studies which follow were carried out on healthy male volunteers in whom the levels of glucose and active substance in the course of time were determined:
In the interests of more precise clarification, study 5 was carried out (randomised, open, crossover). […] 2 hours after administration a standard breakfast (B) was eaten, 5 hours after administration a standard lunch (L) was eaten and 10 hours after administration a standard dinner (D) was eaten. Blood samples were taken at different times. The glucose concentrations were measured in the plasma as in study 1. […] The plasma concentrations of AG-EE 624 ZW were calculated as the difference between the two concentrations found:

[3] = test system: glucose; test: Study 3: whole blood glucose, single fasting test subject, crossover; format: in vivo, human
[4] = Study 1: plasma concentration, non-stereoselective HPLC; format: in vivo, human
[5] = test system: glucose; test: Study 1: whole blood glucose, 2 mg AG-EE 388 ZW capsule, 12 healthy male volunteers; format: in vivo, human; conditions: 2 mg capsule
[6] = Study 3: plasma concentration of active substance, single test subject; format: in vivo, human; conditions: for Cmax: read-out: Maximum concentration; for Tmax: read-out: Time of peak concentration; for concentration at 1.5 h: 1.50 h; for concentration at 2.5 h: 2.50 h; for concentration at 3.5 h: 3.50 h

Compound: CCOc1cc(CC(=O)NC(CC(C)C)c2ccccc2N2CCCCC2)ccc1C(=O)O (racemic) [AG-EE 388 ZW, 2-ethoxy-4-[N-[1-(2-piperidino-phenyl)-3-methyl-1-butyl]aminocarbonylmethyl]-benzoic acid]
- Glucose (mean) ([1]; 2 mg capsule, 0 h): 5.0 mmol/L
- Glucose (mean) ([1]; 2 mg capsule, 0.20 h): 5.0 mmol/L
- Glucose (mean) ([1]; 2 mg capsule, 0.33 h): 4.9 mmol/L
- Glucose (mean) ([1]; 2 mg capsule, 0.50 h): 4.8 mmol/L
- Glucose (mean) ([1]; 2 mg capsule, 0.75 h): 4.6 mmol/L
- Glucose (mean) ([1]; 2 mg capsule, 1.00 h): 4.4 mmol/L
- Glucose (mean) ([1]; 2 mg capsule, 1.50 h): 3.9 mmol/L
- Glucose (mean) ([1]; 2 mg capsule, 2.00 h (breakfast)): 3.7 mmol/L
- Glucose (mean) ([1]; 2 mg capsule, 3.00 h): 4.4 mmol/L
- Glucose (mean) ([1]; 2 mg capsule, 4.00 h): 4.0 mmol/L
- Glucose (mean) ([1]; 2 mg capsule, 5.00 h (lunch)): 4.2 mmol/L
- Glucose (mean) ([1]; 2 mg capsule, 6.00 h): 4.8 mmol/L
- Glucose (mean) ([1]; 2 mg capsule, 9.00 h): 5.0 mmol/L
- Glucose (mean) ([1]; 2 mg capsule, 24.00 h): 4.9 mmol/L
- Time at which glucose levels return to original level ([1]; 2 mg p.o.): 6 h
- Glucose (mean) ([1]; 2 mg tablet, 0 h): 4.9 mmol/L
- Glucose (mean) ([1]; 2 mg tablet, 0.20 h): 5.0 mmol/L
- Glucose (mean) ([1]; 2 mg tablet, 0.33 h): 4.9 mmol/L
- Glucose (mean) ([1]; 2 mg tablet, 0.50 h): 4.6 mmol/L
- Glucose (mean) ([1]; 2 mg tablet, 0.75 h): 4.4 mmol/L
- Glucose (mean) ([1]; 2 mg tablet, 1.00 h): 4.1 mmol/L
- Glucose (mean) ([1]; 2 mg tablet, 1.50 h): 3.8 mmol/L
- Glucose (mean) ([1]; 2 mg tablet, 2.00 h (breakfast)): 3.8 mmol/L
- Glucose (mean) ([1]; 2 mg tablet, 3.00 h): 4.7 mmol/L
- Glucose (mean) ([1]; 2 mg tablet, 4.00 h): 4.2 mmol/L
- Glucose (mean) ([1]; 2 mg tablet, 5.00 h (lunch)): 4.2 mmol/L
- Glucose (mean) ([1]; 2 mg tablet, 6.00 h): 5.2 mmol/L
- Glucose (mean) ([1]; 2 mg tablet, 9.00 h): 5.0 mmol/L
- Glucose (mean) ([1]; 2 mg tablet, 24.00 h): 4.8 mmol/L
- concentration at 0.08 h ([2]; iv): 33.3 ng/mL
- concentration at 0.17 h ([2]; iv): 74.8 ng/mL
- concentration at 0.25 h ([2]; iv): 104 ng/mL
- concentration at 0.28 h ([2]; iv): 102 ng/mL
- concentration at 0.33 h ([2]; iv): 85.6 ng/mL
- concentration at 0.42 h ([2]; iv): 69.6 ng/mL
- concentration at 0.5 h ([2]; iv): 60.1 ng/mL
- concentration at 0.75 h ([2]; iv): 44.2 ng/mL
- concentration at 1 h ([2]; iv): 35.8 ng/mL
- concentration at 1.25 h ([2]; iv): 31.4 ng/mL
- concentration at 1.5 h ([2]; iv): 27 ng/mL
- concentration at 2 h ([2]; iv): 21 ng/mL
- concentration at 2.5 h ([2]; iv): 17.6 ng/mL
- concentration at 3 h ([2]; iv): 13.5 ng/mL
- concentration at 4 h ([2]; iv): 9.4 ng/mL
- concentration at 5 h ([2]; iv): 7 ng/mL
- concentration at 6 h ([2]; iv): 4 ng/mL
- concentration at 9 h ([2]; iv): 1.5 ng/mL
- concentration at 0.5 h ([2]; po): 35.1 ng/mL
- concentration at 0.75 h ([2]; po): 40.2 ng/mL
- concentration at 1 h ([2]; po): 39.1 ng/mL
- concentration at 1.5 h ([2]; po): 30.8 ng/mL
- concentration at 2 h ([2]; po): 24 ng/mL
- concentration at 3 h ([2]; po): 14.8 ng/mL
- concentration at 4 h ([2]; po): 8.7 ng/mL
- concentration at 5 h ([2]; po): 5.6 ng/mL
- concentration at 6 h ([2]; po): 3.5 ng/mL
- concentration at 9 h ([2]; po): 1.8 ng/mL
- Time of maximum blood sugar reduction ([3]; 2 mg): 2.0 h
- Glucose, deviation against t = 0 ([3]; 2 mg capsule, 0 h): 0%
- Glucose, deviation against t = 0 ([3]; 2 mg, 0.50 h): 0%
- Glucose, deviation against t = 0 ([3]; 2 mg, 0.75 h): 0%
- Glucose, deviation against t = 0 ([3]; 2 mg, 1.00 h): -5%
- Glucose, deviation against t = 0 ([3]; 2 mg, 1.25 h): -12%
- Glucose, deviation against t = 0 ([3]; 2 mg, 1.50 h): -18%
- Glucose, deviation against t = 0 ([3]; 2 mg, 1.75 h): -23%
- Glucose, deviation against t = 0 ([3]; 2 mg, 2.00 h): -29%
- Glucose, deviation against t = 0 ([3]; 2 mg, 2.50 h): -27%
- Glucose, deviation against t = 0 ([3]; 2 mg, 3.00 h): -21%
- Glucose, deviation against t = 0 ([3]; 2 mg, 4.00 h): -17%
- Glucose, deviation against t = 0 ([3]; 2 mg, 5.00 h): -17%
- Glucose, deviation against t = 0 ([3]; 2 mg, 6.00 h): -16%
- Maximum lowering of blood glucose ([3]; 4 mg): -38%
- Onset of effect ([3]; 4 mg): about 1.0 hour
- Time of maximum blood sugar reduction ([3]; 4 mg): 2.0 h
- Glucose, deviation against t = 0 ([3]; 4 mg capsule, 0 h): 0%
- Glucose, deviation against t = 0 ([3]; 4 mg, 0.50 h): -3%
- Glucose, deviation against t = 0 ([3]; 4 mg, 0.75 h): -1%
- Glucose, deviation against t = 0 ([3]; 4 mg, 1.00 h): -7%
- Glucose, deviation against t = 0 ([3]; 4 mg, 1.25 h): -15%
- Glucose, deviation against t = 0 ([3]; 4 mg, 1.50 h): -21%
- Glucose, deviation against t = 0 ([3]; 4 mg, 1.75 h): -32%
- Glucose, deviation against t = 0 ([3]; 4 mg, 2.00 h): -38%
- Glucose, deviation against t = 0 ([3]; 4 mg, 2.50 h): -34%
- Glucose, deviation against t = 0 ([3]; 4 mg, 3.00 h): -28%
- Glucose, deviation against t = 0 ([3]; 4 mg, 3.50 h): -24%
- Glucose, deviation against t = 0 ([3]; 4 mg, 4.00 h): -26%
- Glucose, deviation against t = 0 ([3]; 4 mg, 5.00 h): -24%
- Glucose, deviation against t = 0 ([3]; 4 mg, 6.00 h): -23%
- Glucose, deviation against t = 0 ([3]; 4 mg, 7.00 h): -20%
- Glucose, deviation against t = 0 ([3]; 4 mg, 8.00 h): -25%
- Concentration (mean) ([4]; 2 mg capsule, 0 h): 0.0 ng/mL
- Concentration (mean) ([4]; 2 mg capsule, 10.00 h): 0.0 ng/mL
- Time at which level reaches the detection limit ([4]; 2 mg capsule, limit 5 ng/ml): 5 h
- concentration at 0.5 h ([4]; human, plasma, po, 2 mg, 2 mg capsule, 0.50 h): 55.8 ng/mL
- concentration at 0.75 h ([4]; human, plasma, po, 2 mg, 2 mg capsule, 0.75 h): 82.9 ng/mL
- concentration at 1 h ([4]; human, plasma, po, 2 mg, 2 mg capsule, 1.00 h): 82.8 ng/mL
- concentration at 1.5 h ([4]; human, plasma, po, 2 mg, 2 mg capsule, 1.50 h): 64.7 ng/mL
- concentration at 2 h ([4]; human, plasma, po, 2 mg, 2 mg capsule, 2.00 h): 58.3 ng/mL
- concentration at 3 h ([4]; human, plasma, po, 2 mg, 2 mg capsule, 3.00 h): 29.4 ng/mL
- concentration at 4 h ([4]; human, plasma, po, 2 mg, 2 mg capsule, 4.00 h): 16.3 ng/mL
- concentration at 5 h ([4]; human, plasma, po, 2 mg, 2 mg capsule, 5.00 h): 9 ng/mL
- concentration at 6 h ([4]; human, plasma, po, 2 mg, 2 mg capsule, 6.00 h): 4.2 ng/mL
- concentration at 8 h ([4]; human, plasma, po, 2 mg, 2 mg capsule, 8.00 h): 1.2 ng/mL
- Cmax ([4]; human, plasma, po, 2 mg capsule p.o., read-out: Maximum concentration): 83 ± 18 ng/mL
- Duration of activity [5]: about 5 hours
- Glucose, deviation from placebo ([5]; 0 h): n.s.
- Glucose, deviation from placebo ([5]; 0.50 h): n.s.
- Glucose, deviation from placebo ([5]; 0.75 h): -9%
- Glucose, deviation from placebo ([5]; 1.00 h): -17%
- Glucose, deviation from placebo ([5]; 1.50 h): -27%
- Glucose, deviation from placebo ([5]; 2.00 h): -24%
- Glucose, deviation from placebo ([5]; 2.50 h): -19%
- Glucose, deviation from placebo ([5]; 3.00 h): n.s.
- Glucose, deviation from placebo ([5]; 4.00 h): -24%
- Glucose, deviation from placebo ([5]; 5.00 h): -9%
- Glucose, deviation from placebo ([5]; 5.50 h (lunch)): n.s.
- Glucose, deviation from placebo ([5]; 6.00 h): n.s.
- Glucose, deviation from placebo ([5]; 7.00 h (snack)): n.s.
- Glucose, deviation from placebo ([5]; 8.00 h): -5%
- Glucose, deviation from placebo ([5]; 9.00 h): n.s.
- Glucose, deviation from placebo ([5]; 10.00 h (dinner)): n.s.
- Active substance concentration ([6]; 2 mg, 5.00 h): 0 ng/mL
- Active substance concentration ([6]; 4 mg capsule, 0 h): 0 ng/mL
- Active substance concentration ([6]; 4 mg, 0.50 h): 0 ng/mL
- Cmax ([6]; human, plasma, po, 2 mg, 2 mg capsule): 82 ng/mL
- Tmax ([6]; human, plasma, po, 2 mg): 1.75 h
- Cmax ([6]; human, plasma, po, 4 mg, 4 mg capsule): 150 ng/mL
- Tmax ([6]; human, plasma, po, 4 mg): 1.5 h
- concentration at 0.5 h ([6]; human, plasma, po, 2 mg capsule, 0.50 h): 11 ng/mL
- concentration at 0.75 h ([6]; human, plasma, po, 2 mg): 16 ng/mL
- concentration at 1 h ([6]; human, plasma, po, 2 mg): 40 ng/mL
- concentration at 1.25 h ([6]; human, plasma, po, 2 mg): 44 ng/mL
- concentration at 1.5 h ([6]; human, plasma, po, 2 mg): 68 ng/mL
- concentration at 1.75 h ([6]; human, plasma, po, 2 mg): 82 ng/mL
- concentration at 2 h ([6]; human, plasma, po, 2 mg): 82 ng/mL
- concentration at 2.5 h ([6]; human, plasma, po, 2 mg): 80 ng/mL
- concentration at 3 h ([6]; human, plasma, po, 2 mg): 72 ng/mL
- concentration at 3.5 h ([6]; human, plasma, po, 2 mg): 59 ng/mL
- concentration at 4 h ([6]; human, plasma, po, 2 mg): 32 ng/mL
- concentration at 0.75 h ([6]; human, plasma, po, 4 mg): 10 ng/mL
- concentration at 1 h ([6]; human, plasma, po, 4 mg): 72 ng/mL
- concentration at 1.25 h ([6]; human, plasma, po, 4 mg): 130 ng/mL
- concentration at 1.5 h ([6]; human, plasma, po, 4 mg): 150 ng/mL
- concentration at 1.75 h ([6]; human, plasma, po, 4 mg): 148 ng/mL
- concentration at 2 h ([6]; human, plasma, po, 4 mg): 141 ng/mL
- concentration at 2.5 h ([6]; human, plasma, po, 4 mg): 119 ng/mL
- concentration at 3 h ([6]; human, plasma, po, 4 mg): 109 ng/mL
- concentration at 3.5 h ([6]; human, plasma, po, 4 mg): 84 ng/mL
- concentration at 4 h ([6]; human, plasma, po, 4 mg): 71 ng/mL
- concentration at 5 h ([6]; human, plasma, po, 4 mg, 5.00 h): 64 ng/mL
- concentration at 6 h ([6]; human, plasma, po, 4 mg, 6.00 h): 49 ng/mL
- concentration at 7 h ([6]; human, plasma, po, 4 mg, 7.00 h): 21 ng/mL
- concentration at 8 h ([6]; human, plasma, po, 4 mg, 8.00 h): 18 ng/mL
